Measurements reported in PMC7272617 (Scientific Reports, 2020).
Values after ≈ are worked out from the molar mass of the structure shown. Read-outs that look alike come from different tables or passages of the source. Where a SMILES comes first, the peptide text is derived from it. Bridges are numbered along the chain shown (N, C = ends). [ ]: non-standard residue; d: D form. The star is where a group is joined. X1 = CC[C@H](C)CCCCC(=O)*; Dab = NCC[C@H](N)C(=O)O

Tests used:
[1] = system: Acinetobacter baumannii MT strain; conditions: MT strain, 24 h
[2] = system: Escherichia coli O157:H7 MT strain; conditions: E. coli O157:H7 MT strain; MHB, 37 °C, 24 h
[3] = system: Salmonella Typhimurium ATCC 13311; conditions: ATCC 13311, 24 h
[4] = system: Vibrio cholera O1 Inaba DMST 16261; conditions: MHB, 37 °C, 24 h
[5] = system: Listeria monocytogenes 10403 s; conditions: 10403 s, 24 h
[6] = system: all Gram-positive strains; experiment: Mean MIC and therapeutic index, Gram-positive strains; type: cell-based; conditions: 5 Gram-positive strains of Table 3
Method: (§1) The antimicrobial activity of the peptides was determined against both Gram-positive and -negative bacteria including 14 MDR P. aeruginosa clinical isolates from Bhumibol Adulyadej Hospital (Tables 1 and 3). The minimal inhibitory concentration (MIC) of each peptide was measured according to a modification of the National Committee for Clinical Laboratory Standards (NCCLS) broth microdilution method as previously described. Briefly, bacterial cells in mid-log phase were cultured in Müeller-Hinton broth (MHB) and then diluted to 10^7 CFU/ml. […] Plates were incubated at 37 °C for 24 h, and MICs were defined as the lowest concentration of peptide that prevented visible turbidity. Cultures without peptides and uninoculated MHB were employed as positive and negative controls, respectively. Colony count assays were performed to determine the minimal bactericidal concentrations (MBCs) for determination of time-killing activity. As previously described, a 50 μl aliquot from each non-turbid well identified in the MIC determination experiment was spread on agar plates.
(§2) To further evaluate the global activity of these peptides, the geometric mean (GM) MIC and the therapeutic index (TI) of each were calculated (Table 3). The TI, a widely used parameter to evaluate cell selectivity and specificity of antimicrobial agents, was calculated as the ratio of MHC (the concentration that causes 10% hemolysis) to the geometric mean of MICs[22]. Higher TIs indicated greater cell selectivity and specificity.

[7] = system: Gram-negative and -positive bacterial strains; experiment: MIC against the panel of Gram-negative and -positive bacterial strains; type: cell-based; conditions: 12 strains of Table 3; result in words
[8] = system: all Gram-negative strains; experiment: Mean MIC and therapeutic index, Gram-negative strains; type: cell-based; conditions: 7 Gram-negative strains of Table 3
Method: as §1, §2

[9] = system: Escherichia coli ATCC 25922; conditions: ATCC 25922, 24 h
[10] = system: Shigella sonnei ATCC 11060; conditions: MHB, 37 °C, 24 h
[11] = system: Staphylococcus epidermidis ATCC 12228; conditions: ATCC 12228, 24 h
[12] = system: Pseudomonas aeruginosa ATCC 27853
[13] = system: Staphylococcus aureus ATCC 25923; conditions: ATCC 25923, 24 h
[14] = system: Enterococcus faecalis ATCC 29212; conditions: ATCC 29212, 24 h
[15] = system: Bacillus cereus ATCC 11778; conditions: ATCC 11778, 24 h
[16] = system: MDR P. aeruginosa clinical isolate No.6; conditions: MDR P. aeruginosa clinical isolate No.6
[17] = system: MDR P. aeruginosa clinical isolate No.14; conditions: MDR P. aeruginosa clinical isolate No.14
[18] = system: MDR P. aeruginosa clinical isolate No.2; conditions: MDR P. aeruginosa clinical isolate No.2
[19] = system: MDR P. aeruginosa clinical isolate No.11; conditions: MDR P. aeruginosa clinical isolate No.11
[20] = system: MDR P. aeruginosa clinical isolate No.7; conditions: MDR P. aeruginosa clinical isolate No.7
[21] = system: MDR P. aeruginosa clinical isolate No.4; conditions: MDR P. aeruginosa clinical isolate No.4
[22] = system: MDR P. aeruginosa clinical isolate No.3; conditions: MDR P. aeruginosa clinical isolate No.3
[23] = system: MDR P. aeruginosa clinical isolate No.13; conditions: MDR P. aeruginosa clinical isolate No.13
[24] = system: MDR P. aeruginosa clinical isolate No.5; conditions: MDR P. aeruginosa clinical isolate No.5
[25] = system: MDR P. aeruginosa clinical isolate No.8; conditions: MDR P. aeruginosa clinical isolate No.8
[26] = system: MDR P. aeruginosa clinical isolate No.9; conditions: MDR P. aeruginosa clinical isolate No.9
[27] = system: MDR P. aeruginosa clinical isolate No.10; conditions: MDR P. aeruginosa clinical isolate No.10
[28] = system: MDR P. aeruginosa clinical isolate No.12
[29] = system: MDR P. aeruginosa clinical isolate No.1
[30] = P. aeruginosa ATCC 27853, MHB, 10^7 CFU/ml, 37 °C, 24 h, no visible turbidity

Compound	MIC [1]	MIC [2]	MIC [3]	MIC [4]	MIC [5]	GM (Gr.+ strains): geometric mean of MIC values from all Gram-positive strains [6]	antibacterial activity against tested microorganisms [7]	GM (Gr.− strains): geometric mean of MIC values from all Gram-negative strains [8]	MIC [9]	MIC [10]	MIC [11]	MIC ([12]; ATCC 27853, 24 h)	MIC [13]	MIC [14]	MIC [15]	MIC [16]	MIC [17]	MIC [18]	MIC [19]	MIC [20]	also measured
CC[C@H](C)[C@H](NC(=O)[C@H](CC(=O)O)NC(=O)[C@H](Cc1ccccc1)NC(=O)[C@H](CC(C)C)NC(=O)CN)C(=O)N[C@H](C(=O)N[C@@H](CCCCN)C(=O)N[C@@H](CCCCN)C(=O)N[C@H](C(=O)N[C@@H](C)C(=O)NCC(N)=O)C(C)C)C(C)C [A0] (H-GLFDIVKKVAG-NH2; N-terminus assumed)	>250 µg/mL	>250 µg/mL	>250 µg/mL	>250 µg/mL	>250 µg/mL	>250 µg/mL	no antibacterial activity	>250 µg/mL	>250 µg/mL	>250 µg/mL	>250 µg/mL	>250 µg/mL	>250 µg/mL	>250 µg/mL	>250 µg/mL	–	–	–	–	–	–
CC(C)C[C@H](NC(=O)[C@@H](N)CCCNC(=N)N)C(=O)N[C@@H](Cc1ccccc1)C(=O)N[C@@H](CCCNC(=N)N)C(=O)N[C@@H](CCCNC(=N)N)C(=O)N[C@H](C(=O)N[C@@H](CCCCN)C(=O)N[C@@H](CCCCN)C(=O)N[C@H](C(=O)N[C@@H](C)C(=O)NCC(N)=O)C(C)C)C(C)C [A3] (H-RLFRRVKKVAG-NH2; N-terminus assumed)	>250 µg/mL	>250 µg/mL	>250 µg/mL	>250 µg/mL	250 µg/mL (≈ 188 µM)	>250 µg/mL	no antibacterial activity	>250 µg/mL	>250 µg/mL	>250 µg/mL	>250 µg/mL	>250 µg/mL	>250 µg/mL	>250 µg/mL	>250 µg/mL	–	–	–	–	–	–
CC[C@H](C)CCCCC(=O)N[C@@H](CCN)C(=O)N[C@H](C(=O)N[C@@H](CCN)C(=O)N[C@H]1CCNC(=O)[C@H]([C@@H](C)O)NC(=O)[C@H](CCN)NC(=O)[C@H](CCN)NC(=O)[C@H](CC(C)C)NC(=O)[C@@H](CC(C)C)NC(=O)[C@H](CCN)NC1=O)[C@@H](C)O [Colistin] (X1-[Dab]T[Dab][Dab][Dab][dL]L[Dab][Dab]T; lactam 4-C (inferred); N-terminus assumed)	–	–	–	–	–	–	–	–	–	–	–	–	–	–	–	1.95 µg/mL (≈ 1.67 µM)	0.98 µg/mL (≈ 0.838 µM)	1.95 µg/mL (≈ 1.67 µM)	1.95 µg/mL (≈ 1.67 µM)	0.98 µg/mL (≈ 0.838 µM)	MIC [21]: 1.95 µg/mL (≈ 1.67 µM); MIC [22]: 1.95 µg/mL (≈ 1.67 µM); MIC [23]: 0.98 µg/mL (≈ 0.838 µM); MIC [24]: 1.95 µg/mL (≈ 1.67 µM); MIC [25]: 0.98 µg/mL (≈ 0.838 µM); MIC [26]: 0.98 µg/mL (≈ 0.838 µM); MIC [12, 30]: ≤0.98 µg/mL; MIC [27]: 1.95 µg/mL (≈ 1.67 µM); MIC [28]: 1.95 µg/mL (≈ 1.67 µM); MIC [29]: 1.95 µg/mL (≈ 1.67 µM)
CC[C@H](C)[C@H](NC(=O)[C@H](CCCNC(=N)N)NC(=O)[C@H](CCCCN)NC(=O)[C@H](CCCCN)NC(=O)[C@@H](NC(=O)[C@H](CCCCN)NC(=O)[C@H](CCC(=O)O)NC(=O)[C@H](CCCCN)NC(=O)[C@@H](N)CCCNC(=N)N)[C@@H](C)CC)C(=O)NCC(=O)N[C@@H](CCCCN)C(=O)N[C@H](C(=O)N[C@@H](CC(=O)O)C(=O)N[C@@H](CCCNC(=N)N)C(=O)N[C@@H](CC(C)C)C(N)=O)[C@@H](C)CC [P0] (H-RKEKIKKRIGKIDRL-NH2; N-terminus assumed)	>250 µg/mL	>250 µg/mL	>250 µg/mL	>250 µg/mL	>250 µg/mL	>250 µg/mL	no antibacterial activity	>250 µg/mL	>250 µg/mL	>250 µg/mL	>250 µg/mL	>250 µg/mL	>250 µg/mL	>250 µg/mL	>250 µg/mL	–	–	–	–	–	–
Gentamycin	–	–	–	–	–	–	–	–	–	–	–	–	–	–	–	>125 µg/mL	>125 µg/mL	>125 µg/mL	>125 µg/mL	125 µg/mL	MIC [21]: >125 µg/mL; MIC [22]: >125 µg/mL; MIC [23]: >125 µg/mL; MIC [24]: 125 µg/mL; MIC [25]: >125 µg/mL; MIC [26]: >125 µg/mL; MIC [12, 30]: ≤0.98 µg/mL; MIC [27]: >125 µg/mL; MIC [28]: 125 µg/mL; MIC [29]: >125 µg/mL
